Consider 7 compounds from article PMC2751792 (Journal of the American Chemical Society, 2009).

Square brackets hold non-standard residues; d marks the D form. Peptide text beside a SMILES is read from it. * marks the point of attachment. Asu = N[C@@H](CCCCCC(=O)O)C(=O)O; β3hL = CC(C)C[C@H](N)CC(=O)O; NHOH = ON*

One assay deals with T1, recombinant human HDAC7 (Homo sapiens, UniProt Q8WUI4).
T1 sequence (Q8WUI4 1-952): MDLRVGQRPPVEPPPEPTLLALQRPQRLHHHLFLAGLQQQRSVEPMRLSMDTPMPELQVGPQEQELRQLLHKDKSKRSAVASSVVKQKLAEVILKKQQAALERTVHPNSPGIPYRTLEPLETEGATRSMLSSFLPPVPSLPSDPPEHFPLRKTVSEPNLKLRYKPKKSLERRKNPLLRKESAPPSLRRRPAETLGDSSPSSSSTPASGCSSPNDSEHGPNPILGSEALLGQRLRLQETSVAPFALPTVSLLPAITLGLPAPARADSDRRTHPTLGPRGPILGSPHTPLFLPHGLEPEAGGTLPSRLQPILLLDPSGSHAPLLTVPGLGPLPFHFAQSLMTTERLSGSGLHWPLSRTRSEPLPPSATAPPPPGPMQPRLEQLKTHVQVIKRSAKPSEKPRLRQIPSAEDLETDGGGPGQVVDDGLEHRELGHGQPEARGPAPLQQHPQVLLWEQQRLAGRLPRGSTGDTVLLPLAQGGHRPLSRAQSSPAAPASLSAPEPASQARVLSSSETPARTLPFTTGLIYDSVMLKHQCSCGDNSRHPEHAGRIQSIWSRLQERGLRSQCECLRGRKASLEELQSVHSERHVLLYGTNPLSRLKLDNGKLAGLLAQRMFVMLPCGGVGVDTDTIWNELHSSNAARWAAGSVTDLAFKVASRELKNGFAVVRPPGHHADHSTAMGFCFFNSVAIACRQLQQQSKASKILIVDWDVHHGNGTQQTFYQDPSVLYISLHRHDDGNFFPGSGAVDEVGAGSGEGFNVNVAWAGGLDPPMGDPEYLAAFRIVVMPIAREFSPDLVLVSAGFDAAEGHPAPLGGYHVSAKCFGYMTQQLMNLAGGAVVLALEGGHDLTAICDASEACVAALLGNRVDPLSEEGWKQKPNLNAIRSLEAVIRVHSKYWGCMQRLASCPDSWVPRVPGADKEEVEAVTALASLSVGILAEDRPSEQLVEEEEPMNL
Briefly: Recombinant HDAC isoform inhibition, HDAC7. In kind it is biochemical.

The next assay addresses recombinant human HDAC3 (Homo sapiens, UniProt O15379). Briefly: Recombinant HDAC isoform inhibition, HDAC3. It counts as biochemical.
The next assay deals with T2, recombinant human HDAC6 (Homo sapiens, UniProt Q9UBN7).
T2 sequence (Q9UBN7 1-1215): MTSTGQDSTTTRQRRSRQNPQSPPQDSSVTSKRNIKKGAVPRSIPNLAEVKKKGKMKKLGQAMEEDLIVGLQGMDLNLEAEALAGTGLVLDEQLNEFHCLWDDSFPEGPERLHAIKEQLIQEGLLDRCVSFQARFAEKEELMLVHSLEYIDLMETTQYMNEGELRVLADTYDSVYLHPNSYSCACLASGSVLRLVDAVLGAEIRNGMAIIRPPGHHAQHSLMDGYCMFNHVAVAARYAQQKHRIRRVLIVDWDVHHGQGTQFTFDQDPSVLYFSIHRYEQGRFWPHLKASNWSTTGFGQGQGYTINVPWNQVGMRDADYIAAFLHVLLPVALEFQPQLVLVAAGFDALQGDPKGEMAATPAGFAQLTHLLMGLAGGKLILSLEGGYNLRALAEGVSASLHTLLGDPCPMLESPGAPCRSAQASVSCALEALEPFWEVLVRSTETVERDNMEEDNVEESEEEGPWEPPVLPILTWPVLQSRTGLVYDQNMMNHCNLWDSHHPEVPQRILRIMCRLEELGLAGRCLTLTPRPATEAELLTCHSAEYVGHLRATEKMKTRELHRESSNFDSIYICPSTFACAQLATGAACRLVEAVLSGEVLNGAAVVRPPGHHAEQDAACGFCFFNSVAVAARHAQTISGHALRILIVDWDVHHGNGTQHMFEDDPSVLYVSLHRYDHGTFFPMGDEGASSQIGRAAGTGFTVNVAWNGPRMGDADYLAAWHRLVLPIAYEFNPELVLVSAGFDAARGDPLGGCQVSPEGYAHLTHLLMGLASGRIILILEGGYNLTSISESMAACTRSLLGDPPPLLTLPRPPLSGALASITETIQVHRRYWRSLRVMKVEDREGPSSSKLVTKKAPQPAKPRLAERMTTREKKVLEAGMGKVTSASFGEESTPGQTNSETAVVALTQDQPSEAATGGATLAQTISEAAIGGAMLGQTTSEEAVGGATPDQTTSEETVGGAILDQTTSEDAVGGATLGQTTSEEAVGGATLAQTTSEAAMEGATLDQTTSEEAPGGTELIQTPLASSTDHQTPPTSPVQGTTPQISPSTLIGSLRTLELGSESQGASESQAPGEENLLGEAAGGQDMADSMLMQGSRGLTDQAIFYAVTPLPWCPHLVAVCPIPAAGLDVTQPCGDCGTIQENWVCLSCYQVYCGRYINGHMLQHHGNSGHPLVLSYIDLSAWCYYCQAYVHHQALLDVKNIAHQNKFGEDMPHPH
Briefly: Recombinant HDAC isoform inhibition, HDAC6. It counts as biochemical.

In assay [1] the test system is HDAC activity in HeLa cell nuclear extract. The assay can be described thus: Inhibition of HDAC activity in HeLa cell nuclear extract. Particulars: for IC50: read-out: HDAC inhibition, IC50, HeLa, at least in duplicate; for HDAC inhibitory activity in HeLa cell nuclear extract, result in words: numbers only in Figures 2-4 (not readable). In kind it is biochemical, human.

Another assay has as its target recombinant human HDAC4 (Homo sapiens, UniProt P56524). Briefly: Recombinant HDAC isoform inhibition, HDAC4. It counts as biochemical.
A further assay addresses recombinant human HDAC1 (Homo sapiens, UniProt Q13547). Briefly: Recombinant HDAC isoform inhibition, HDAC1. In kind it is biochemical.
In another assay the target is T3, recombinant human HDAC10 (Homo sapiens, UniProt Q969S8).
T3 sequence (Q969S8 1-669): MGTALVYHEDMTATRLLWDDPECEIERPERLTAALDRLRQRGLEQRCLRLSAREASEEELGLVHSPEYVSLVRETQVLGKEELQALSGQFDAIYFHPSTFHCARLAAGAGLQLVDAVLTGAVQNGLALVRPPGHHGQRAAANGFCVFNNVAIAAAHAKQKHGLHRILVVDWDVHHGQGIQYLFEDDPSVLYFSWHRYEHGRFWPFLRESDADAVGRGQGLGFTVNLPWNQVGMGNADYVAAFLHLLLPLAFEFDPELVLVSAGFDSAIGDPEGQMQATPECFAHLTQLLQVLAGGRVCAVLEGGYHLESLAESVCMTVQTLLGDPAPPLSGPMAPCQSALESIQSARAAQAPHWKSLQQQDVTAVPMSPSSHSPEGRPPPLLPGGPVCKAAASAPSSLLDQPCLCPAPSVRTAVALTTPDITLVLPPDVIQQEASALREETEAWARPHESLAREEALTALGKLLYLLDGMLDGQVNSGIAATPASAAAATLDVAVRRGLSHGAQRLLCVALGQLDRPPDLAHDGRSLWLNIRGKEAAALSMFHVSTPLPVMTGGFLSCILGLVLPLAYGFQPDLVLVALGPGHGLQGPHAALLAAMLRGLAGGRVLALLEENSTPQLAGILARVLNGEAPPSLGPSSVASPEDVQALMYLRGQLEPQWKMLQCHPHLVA
The assay can be described thus: Recombinant HDAC isoform inhibition, HDAC10. In kind it is biochemical.

Another assay addresses recombinant human HDAC5 (Homo sapiens, UniProt Q9UQL6). Briefly: Recombinant HDAC isoform inhibition, HDAC5. It counts as biochemical.
In another assay the target is recombinant human HDAC9 (Homo sapiens, UniProt Q9UKV0). The assay can be described thus: Recombinant HDAC isoform inhibition, HDAC9. In kind it is biochemical.
The next assay has as its target recombinant human HDAC2 (Homo sapiens, UniProt Q92769). The assay can be described thus: Recombinant HDAC isoform inhibition, HDAC2. It counts as biochemical.

recombinant human HDAC9, sequence (Q9UKV0 whole entry, canonical isoform): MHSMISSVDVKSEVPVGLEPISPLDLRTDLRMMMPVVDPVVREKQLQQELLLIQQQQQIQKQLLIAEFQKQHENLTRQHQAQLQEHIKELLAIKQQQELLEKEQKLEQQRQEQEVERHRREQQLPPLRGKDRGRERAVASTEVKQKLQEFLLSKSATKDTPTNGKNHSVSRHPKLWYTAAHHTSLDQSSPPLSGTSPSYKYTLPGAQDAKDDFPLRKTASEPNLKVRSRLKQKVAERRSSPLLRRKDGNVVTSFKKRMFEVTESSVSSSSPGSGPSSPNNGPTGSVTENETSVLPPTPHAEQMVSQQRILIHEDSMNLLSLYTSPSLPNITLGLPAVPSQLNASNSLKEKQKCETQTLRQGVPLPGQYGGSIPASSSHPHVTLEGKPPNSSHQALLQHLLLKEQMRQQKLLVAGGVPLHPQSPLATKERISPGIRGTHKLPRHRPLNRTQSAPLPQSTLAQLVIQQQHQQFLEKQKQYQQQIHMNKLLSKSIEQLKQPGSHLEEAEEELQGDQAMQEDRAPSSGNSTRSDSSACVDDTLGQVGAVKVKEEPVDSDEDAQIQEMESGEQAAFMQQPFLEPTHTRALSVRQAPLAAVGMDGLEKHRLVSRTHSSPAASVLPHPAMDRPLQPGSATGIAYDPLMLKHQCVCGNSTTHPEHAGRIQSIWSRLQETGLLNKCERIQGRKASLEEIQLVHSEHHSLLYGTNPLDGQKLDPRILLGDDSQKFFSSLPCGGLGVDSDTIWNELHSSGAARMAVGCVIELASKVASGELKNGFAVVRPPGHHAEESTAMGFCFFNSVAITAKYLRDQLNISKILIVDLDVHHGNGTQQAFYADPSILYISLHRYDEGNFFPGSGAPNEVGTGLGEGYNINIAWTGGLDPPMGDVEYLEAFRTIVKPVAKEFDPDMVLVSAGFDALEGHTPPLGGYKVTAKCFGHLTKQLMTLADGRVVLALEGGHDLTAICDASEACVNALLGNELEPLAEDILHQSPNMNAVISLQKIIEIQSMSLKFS
recombinant human HDAC4, sequence (P56524 whole entry, canonical isoform): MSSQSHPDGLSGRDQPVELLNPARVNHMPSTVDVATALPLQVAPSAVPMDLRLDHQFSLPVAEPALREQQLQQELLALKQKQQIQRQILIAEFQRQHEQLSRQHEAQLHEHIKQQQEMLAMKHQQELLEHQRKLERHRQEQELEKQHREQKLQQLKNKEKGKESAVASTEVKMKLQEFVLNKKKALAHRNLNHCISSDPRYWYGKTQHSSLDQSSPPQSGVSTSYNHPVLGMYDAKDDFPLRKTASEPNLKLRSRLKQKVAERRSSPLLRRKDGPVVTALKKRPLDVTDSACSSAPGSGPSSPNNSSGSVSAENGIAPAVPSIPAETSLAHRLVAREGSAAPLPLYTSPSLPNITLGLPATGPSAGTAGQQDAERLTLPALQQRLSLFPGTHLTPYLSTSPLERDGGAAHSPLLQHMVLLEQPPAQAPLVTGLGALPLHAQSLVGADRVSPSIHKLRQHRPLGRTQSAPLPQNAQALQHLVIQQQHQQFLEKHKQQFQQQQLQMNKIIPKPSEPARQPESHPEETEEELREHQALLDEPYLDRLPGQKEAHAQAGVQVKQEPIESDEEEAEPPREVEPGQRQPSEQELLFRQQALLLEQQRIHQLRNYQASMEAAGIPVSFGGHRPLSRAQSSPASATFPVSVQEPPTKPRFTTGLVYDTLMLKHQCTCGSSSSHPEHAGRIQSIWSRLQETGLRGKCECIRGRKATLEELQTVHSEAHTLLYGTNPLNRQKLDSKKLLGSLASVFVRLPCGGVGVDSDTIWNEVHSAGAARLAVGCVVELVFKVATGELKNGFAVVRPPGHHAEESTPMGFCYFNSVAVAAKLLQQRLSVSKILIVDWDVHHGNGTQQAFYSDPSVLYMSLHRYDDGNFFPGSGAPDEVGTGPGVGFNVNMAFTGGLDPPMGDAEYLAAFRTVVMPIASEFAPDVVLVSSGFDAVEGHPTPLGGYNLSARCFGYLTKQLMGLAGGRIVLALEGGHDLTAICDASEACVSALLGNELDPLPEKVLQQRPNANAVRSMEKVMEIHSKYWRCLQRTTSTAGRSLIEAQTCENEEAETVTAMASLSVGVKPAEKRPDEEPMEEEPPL
recombinant human HDAC5, sequence (Q9UQL6 whole entry, canonical isoform): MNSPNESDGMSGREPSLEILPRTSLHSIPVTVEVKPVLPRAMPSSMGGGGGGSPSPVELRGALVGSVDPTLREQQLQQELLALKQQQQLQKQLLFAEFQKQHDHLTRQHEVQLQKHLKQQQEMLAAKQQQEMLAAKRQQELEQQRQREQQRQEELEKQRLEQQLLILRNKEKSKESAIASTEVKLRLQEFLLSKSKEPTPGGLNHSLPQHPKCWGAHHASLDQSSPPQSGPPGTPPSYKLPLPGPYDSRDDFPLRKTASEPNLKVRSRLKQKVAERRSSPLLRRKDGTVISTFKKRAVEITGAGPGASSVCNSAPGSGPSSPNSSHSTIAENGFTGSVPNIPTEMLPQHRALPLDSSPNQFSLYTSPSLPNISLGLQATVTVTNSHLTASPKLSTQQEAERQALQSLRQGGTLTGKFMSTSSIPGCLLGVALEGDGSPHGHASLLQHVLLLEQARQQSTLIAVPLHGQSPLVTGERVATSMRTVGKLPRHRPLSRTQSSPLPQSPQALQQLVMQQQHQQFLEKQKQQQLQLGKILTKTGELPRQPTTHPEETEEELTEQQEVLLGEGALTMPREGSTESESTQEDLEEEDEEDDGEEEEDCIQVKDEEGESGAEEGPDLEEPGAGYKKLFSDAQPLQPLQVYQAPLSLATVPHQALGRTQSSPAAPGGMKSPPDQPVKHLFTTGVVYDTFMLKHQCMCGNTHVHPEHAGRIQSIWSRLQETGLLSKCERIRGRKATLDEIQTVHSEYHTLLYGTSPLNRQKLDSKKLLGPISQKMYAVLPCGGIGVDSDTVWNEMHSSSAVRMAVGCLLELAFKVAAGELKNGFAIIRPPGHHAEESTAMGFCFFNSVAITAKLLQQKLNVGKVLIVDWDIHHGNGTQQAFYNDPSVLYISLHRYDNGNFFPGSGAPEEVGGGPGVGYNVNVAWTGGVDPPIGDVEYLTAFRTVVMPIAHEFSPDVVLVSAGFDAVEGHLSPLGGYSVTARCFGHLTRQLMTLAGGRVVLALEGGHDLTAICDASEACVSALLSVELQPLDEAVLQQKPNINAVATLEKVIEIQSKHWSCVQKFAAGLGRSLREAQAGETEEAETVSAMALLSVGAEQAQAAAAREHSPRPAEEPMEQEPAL
recombinant human HDAC1, sequence (Q13547 whole entry, canonical isoform): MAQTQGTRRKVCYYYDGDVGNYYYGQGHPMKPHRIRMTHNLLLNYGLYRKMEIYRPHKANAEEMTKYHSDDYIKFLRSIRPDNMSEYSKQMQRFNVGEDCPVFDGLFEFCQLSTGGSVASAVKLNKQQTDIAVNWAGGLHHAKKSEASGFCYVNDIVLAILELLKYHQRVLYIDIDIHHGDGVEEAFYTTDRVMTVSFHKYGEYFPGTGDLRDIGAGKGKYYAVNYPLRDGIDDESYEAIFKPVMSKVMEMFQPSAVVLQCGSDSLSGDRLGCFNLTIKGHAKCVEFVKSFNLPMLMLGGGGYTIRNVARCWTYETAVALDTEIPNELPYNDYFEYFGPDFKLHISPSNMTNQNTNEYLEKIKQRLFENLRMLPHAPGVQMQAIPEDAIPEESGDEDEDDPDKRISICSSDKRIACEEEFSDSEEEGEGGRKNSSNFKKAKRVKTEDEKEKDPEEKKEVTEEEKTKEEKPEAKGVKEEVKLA
recombinant human HDAC3, sequence (O15379 whole entry, canonical isoform): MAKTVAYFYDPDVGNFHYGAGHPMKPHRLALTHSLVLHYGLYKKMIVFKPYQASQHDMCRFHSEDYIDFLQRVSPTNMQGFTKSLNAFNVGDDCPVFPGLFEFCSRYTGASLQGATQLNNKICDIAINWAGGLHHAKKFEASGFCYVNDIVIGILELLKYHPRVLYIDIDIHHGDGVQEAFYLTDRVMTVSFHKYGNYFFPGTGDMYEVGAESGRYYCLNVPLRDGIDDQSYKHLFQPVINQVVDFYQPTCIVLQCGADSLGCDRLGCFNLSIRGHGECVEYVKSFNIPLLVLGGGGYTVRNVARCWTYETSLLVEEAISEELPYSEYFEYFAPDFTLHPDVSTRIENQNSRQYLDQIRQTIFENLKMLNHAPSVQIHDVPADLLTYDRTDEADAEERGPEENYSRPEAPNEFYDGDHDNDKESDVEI
recombinant human HDAC3, sequence (Q9Y618 395-489 partner limits assumed): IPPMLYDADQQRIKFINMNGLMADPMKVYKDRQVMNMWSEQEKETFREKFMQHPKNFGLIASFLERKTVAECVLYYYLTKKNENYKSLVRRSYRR
recombinant human HDAC2, sequence (Q92769 whole entry, canonical isoform): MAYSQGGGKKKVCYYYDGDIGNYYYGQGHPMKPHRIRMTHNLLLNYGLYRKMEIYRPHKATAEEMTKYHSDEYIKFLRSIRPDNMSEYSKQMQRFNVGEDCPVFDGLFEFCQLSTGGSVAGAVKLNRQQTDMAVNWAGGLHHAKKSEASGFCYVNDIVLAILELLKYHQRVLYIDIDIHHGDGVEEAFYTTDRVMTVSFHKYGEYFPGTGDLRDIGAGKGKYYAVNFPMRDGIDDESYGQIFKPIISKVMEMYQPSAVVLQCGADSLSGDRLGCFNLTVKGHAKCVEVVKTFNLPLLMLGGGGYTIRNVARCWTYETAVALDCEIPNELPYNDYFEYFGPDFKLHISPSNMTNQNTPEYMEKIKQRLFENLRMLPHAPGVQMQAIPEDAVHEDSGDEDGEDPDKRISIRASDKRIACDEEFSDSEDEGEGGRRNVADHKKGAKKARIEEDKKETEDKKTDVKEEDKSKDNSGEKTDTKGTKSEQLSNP

For `CC(C)C[C@H]1CC(=O)N2CCC[C@H]2C(=O)N[C@@H](CCCCCC(=O)NO)C(=O)N[C@@H](Cc2c[nH]c3ccccc23)C(=O)N1` [4a] (cyclo([Asu](NHOH)W[β3hL]P)), the IC50 (as a rule, the point on the concentration scale where inhibition reaches its midpoint) at recombinant human HDAC7 was more than 10000 nM; at recombinant human HDAC3 it was 35 nM; at recombinant human HDAC6 it was 35 nM; in assay [1] it was less than 1 nM; at recombinant human HDAC4 it was more than 10000 nM; on recombinant human HDAC1, 0.6 nM. Moreover, the “Increase of potency relative to the parent ethylketones 3 and 4” value in assay [1] is reported as “at least 10 fold”.

Consider `CCC(=O)CCCCC[C@@H]1NC(=O)[C@H](C)N(C)C(=O)C[C@H](CC(C)C)NC(=O)[C@H](Cc2c[nH]c3ccccc23)NC1=O` [3h], for which the IC50 was more than 10000 nM at recombinant human HDAC7; 28 nM at recombinant human HDAC10; more than 10000 nM at recombinant human HDAC6; 60 nM on recombinant human HDAC5; 25 nM at recombinant human HDAC9; more than 10000 nM on recombinant human HDAC4. Also, the “HDAC inhibitory activity in HeLa cell nuclear extract, result in words” value (“HDAC inhibitory activity” for short) in [1] was “modest loss of potency”.

Consider `CCC(=O)CCCCC[C@@H]1NC(=O)[C@H](C)NC(=O)C[C@H](CC(C)C)NC(=O)[C@H](Cc2c[nH]c3ccccc23)NC1=O` [compound 3], for which the 50% inhibitory concentration (IC50) on recombinant human HDAC7 is more than 10000 nM; at recombinant human HDAC10 it was 20 nM; in assay [1], 19 nM; on recombinant human HDAC5, 70 nM; at recombinant human HDAC9, 30 nM; on recombinant human HDAC4 it was more than 10000 nM. In addition, the values for the IC50 at recombinant human HDAC1 and on recombinant human HDAC2 were 35 nM and 30 nM, respectively.

As for `CCC(=O)CCCCC[C@@H]1NC(=O)[C@@H]2CCCN2C(=O)C[C@H](CC(C)C)NC(=O)[C@H](Cc2c[nH]c3ccccc23)NC1=O` [compound 4], the IC50 at recombinant human HDAC7 is more than 10000 nM; in assay [1], 9 nM; on recombinant human HDAC5 it was 50 nM; at recombinant human HDAC9, 22 nM; on recombinant human HDAC4, more than 10000 nM. Further, the “HDAC inhibitory activity” value in [1] is given as “low nanomolar IC50 values comparable to that of apicidin”.

On to `CC(C)C[C@H]1CC(=O)N[C@@H](C)C(=O)N[C@@H](CCCCCC(=O)NO)C(=O)N[C@@H](Cc2c[nH]c3ccccc23)C(=O)N1` [3a] (cyclo([Asu](NHOH)W[β3hL]A)), for which the IC50 is more than 10000 nM on recombinant human HDAC7; 0.2 nM at recombinant human HDAC10; 2.5 nM at recombinant human HDAC5; 0.6 nM on recombinant human HDAC9; more than 10000 nM at recombinant human HDAC4.

Consider `CCC(=O)CCCCC[C@@H]1NC(=O)C[C@H](C)NC(=O)C[C@H](CC(C)C)NC(=O)[C@H](Cc2c[nH]c3ccccc23)NC1=O` [compound 5], for which the “HDAC inhibitory activity” value in assay [1] was “high nanomolar activity”.

As to `CC(C)C[C@H]1CC(=O)N[C@@H](C)C(=O)N[C@@H](CCCCCC(=O)O)C(=O)N[C@@H](Cc2c[nH]c3ccccc23)C(=O)N1` [3b] (cyclo([Asu]W[β3hL]A)), the IC50 at recombinant human HDAC7 is more than 10000 nM; on recombinant human HDAC10, 280 nM; on recombinant human HDAC5 it was 700 nM; on recombinant human HDAC9, 550 nM; on recombinant human HDAC4, more than 10000 nM. In assay [1], the “HDAC inhibitory activity” value is “significantly decreased potency”.
